Assay results taken from patent US10308682B2, “Inhibition of tumor growth with aggregates of small molecules” (BRANDEIS UNIVERSITY, priority 2013, dated 2019).

Experiments:
HeLa cells [1] = experiment: Tubulin staining (tubulin tracker), HeLa cells; assay type: cell-based; settings: 24 h
Method: Cells in exponential growth phase were seeded in glass bottomed culture chamber at 10,000 cell/mL. The cells were allowed for attachment for 24 h at 37° C., 5% CO2. The culture medium was removed, and new culture medium containing 1 at 0 or 400 μM was added. After 24 h of incubation, cells were washed with PBS buffer for 3 times and stained by Tubulin Tracker™ Green at 100 nM and DAPI 300 nM in PBS for 30 min at 37° C. in dark. The sample was rinsed three times in PBS, and the cells were kept in PBS for imaging.
To confirm that the aggregates of 1 clusters multiple tubulin heterodimers and inhibit the formation of microtubules inside live cells, we used a tubulin tracker that selectively binds to tubulin polymers (microtubules) over tubulin monomers to stain the HeLa cells treated with 1 at different concentrations for 24 h. […] As the tubulin tracker only stains microtubule (i.e., polymerized tubulin heterodimers), the fluorescence from the cluster indicates the tubulin heterodimers in the clusters are short microtubules. […] The loss of microtubules induced by molecular aggregates of 1 explains the origins of the delay of cell migration and the arrest of cell-cycle in HeLa cells incubated with 400 or 500 μM of 1.

HeLa cells [2] = experiment: Intracellular concentration of 1 in HeLa cells by LC-MS; assay type: cell-based; settings: incubated with 300 μM and 400 μM for 24 h
Method: FIG. 3 depicts the response of cancer cells toward molecular aggregates of 1. (a) Intracellular concentration of 1 in HeLa cells treated with 1 for 12 h at different temperatures measure by LC-MS (left bar=37° C.; right bar=4° C.). (b) Confocal images of FITC annexin V and PI stained HeLa cells without incubation with 1 (live cells), HeLa cells treated with 400 μM of 1 for 36 h, and necrotic HeLa cells (induced by DMSO). Scale bar=20 μm. (c) Fluorescence emission of 7-AAD and 1 in cell lysate (15,000 cell/mL) at λex=488 nm. (d) Cell cycle analysis, by flow cytometry, of HeLa cells treated with 0, 300 or 400 μM of 1 for 24 h. Depletion of G2/M phase occurs in cells treated with 400 μM of 1. […] The gaps were created on the HeLa cells of 100% confluence in 24 well plates, and measured after incubation for 18 h.
The cytotoxicity of the molecular aggregates of 1 toward the cancer cells in cell assays and on animal model warrants further examination on the mechanism of the cell death. […] We measured the intracellular concentrations of 1 in the lysate of the HeLa cells incubated with 300 μM and 400 μM of 1 for 24 h (FIG. 3a) at 37° C. or 4° C. Based on the amount of 1, measured by liquid chromatography-mass spectroscopy (LC-MS) and the estimated total cell volume, the concentration of 1 inside the cells is about 150% of the concentration of 1 used for the incubation at 37° C. […]

How did the microtubule morphology (HeLa cells [1]; 200 μM) turn out when O=C(Cc1ccc2ccccc2c1)N[C@@H](Cc1ccccc1)C(=O)N[C@@H](Cc1ccccc1)C(=O)O [Compound 1] was run?
Its microtubule morphology is “essentially the same morphology and distribution as those in the control cells”.

And the microtubule morphology (HeLa cells [1]; 300 μM)?
The microtubule morphology was “a small amount of the microtubules appear to be shorter than those in the control cells”.

What about the microtubule morphology (HeLa cells [1]; 400 μM) of the same compound?
Its microtubule morphology is “large clusters surrounded by scattered microtubule fibrils”.

And the microtubule morphology (HeLa cells [1]; 400 μM, medium filtered by 0.22 μm PVDF membrane)?
Its microtubule morphology is “(almost) normal microtubule networks, with only few clusters”.

And the “concentration of 1 inside the cells” value (HeLa cells [2]; 4° C.)?
Its value is “about 30 % of the incubating concentration”.

And the “concentration of 1 inside the cells” value (HeLa cells [2]; 37° C.)?
Its value is “about 150 % of the concentration of 1 used for the incubation”.
